Measured values as given in patent publication US11981664B2, “Photoresponsive nutlin derivatives and uses thereof” (Rijksuniversiteit Groningen, priority 2018, dated 2024).
Values belong to the compound of their own block, whether it stands above or below them.

Columns and labels:
[1] = test system: p53 protein level in RPE-1 cells; assay: Immunofluorescent staining of nuclear p53 protein in RPE-1 cells; assay type: cell-based; conditions: for nuclear p53 protein levels: 4 h after addition, regardless of irradiation with 400 nm light
Method: (§1) FIG. 3: Functional p53 induction upon λ=400 nm irradiation in PPG-idasanutlin treated cells, a) RPE-1 cells were treated with indicated compounds (all 10 μM final) and fixed 4 h after 5 min (−/+400 nm) irradiation. Anti-p53 staining indicates p53 protein expression in the nucleus. […] Error bars represent mean +sd, ****P<0.0001 (unpaired t-test), Dots represent individual cells, n>125 cells per condition combined from 2 independent experiments. c) Representative western blot showing p53 protein levels in cells 4 h after addition of DMSO or PPG-idasanutlin and irradiation for indicated time periods. Hsp90 is used as a loading control. d) Selective outgrowth disadvantage in RPE-1 cells 6 days after PPG-idasanutlin treatment +400 nm irradiation for 5 min. e) Representative Western blot showing p53 protein levels in three cell lines (U2OS, RKO, BJhTert) 4 h after indicated treatments. f) Selective outgrowth inhibition in indicated cell lines 6 days after PPG-idasanutlin treatment +400 nm irradiation for 5 min. In all the experiments <1% DMSO was used.
RPE-1 cells were plated on coverslips at equal density and treated with indicated drugs before −/+irradiation (400 nm for 5 min). For immune fluorescent staining, cells were fixed 4 h after irradiation by wash out of the medium, single wash in phosphate-buffered saline (1× PBS) and incubation in 3.7% formaldehyde for 5 min. Next, fixed cells were permeabilized with 0.2% TritonX in 1× PBS for 5 min before blocking in 3% […] (BSA) in 1× PBS supplemented with 0.1% Tween (PBST) for 1 h (all at room temperature (RT)). Cells were incubated overnight at 4° C. with primary antibody in PBST with 3% BSA, washed three times with PBST, and incubated with secondary antibody and DAPI in PBST with 3% BSA for 2 h at RT. After a final three time wash with PBST coverslips were mounted on microscopic analysis slides using ProLong Gold antifade reagent (Thermo Fisher). The following antibodies were used: anti-p53 (sc-126, Santa Cruz, 1/1000), phalloidin (A12380, Molecular Probes, 1/1000) and goat anti-mouse/Alexa. 488 (A11029, Molecular Probes, 1/1000).
Next, the biological activity of PPG-idasanutlin was investigated. Initial studies aimed at confirming a difference in p53 activation upon λ=400 nm light exposure after addition of the protected idasanutlin derivative (PPG-idasanutlin). To that end, non-transformed, p53-proficient retinal pigment epithelial cells (RPE-1) were treated with either DMSO (control), nutlin-3, idasanutlin or PPG-idasanutlin, followed by −/+irradiation with 400 nm light (FIG. 3).

[2] = test system: p53 in BJ-hTert, RKO (colon carcinoma), U2OS (osteosarcoma) cell lines; assay: p53 protein levels (western blot) in additional cell lines; assay type: cell-based; conditions: U2OS (all cell lines tested), after light irradiation, 4 h
Method: as §1
RPE-1 cells were plated at equal density in 6-well plates followed by indicated treatments −/+irradiation (400 nm for 5 min) 24 h later. Cells were fixed and collected 4 h after treatment by wash out of the medium, single wash in 1× PBS followed by addition of laemmli buffer (4% SDS, 20% glycerol and 0.125 M Tris HCl). […]

[3] = Spontaneous hydrolysis in buffer; assay type: physicochemical; conditions: buffer at room temperature (data not shown)
Method: (§2) Following the synthesis of PPG-idasanutlin as described in Example 1, its photochemical behavior under physiological conditions was investigated, UV-vis spectroscopy and UPLC-MS measurements were performed in aqueous buffer at pH=7.0. […] Moreover, no significant spontaneous hydrolysis of PPG-idasanutlin for >24 h in buffer at room temperature was observed (data not shown).

[4] = test system: BJ-hTert, RKO (colon carcinoma), U2OS (osteosarcoma) cell lines; assay: Clonogenic outgrowth of additional cell lines; assay type: cell-based; conditions: 6 days after treatment + 400 nm irradiation for 5 min
Method: as §1
(§3) Cells were plated at equal amounts (1000 cells per well) in a 24-wells plate followed by indicated treatments −/+irradiation (400 nm for 5 min) 24 h later. Cells were cultured under normal cell culture conditions for 6 days to allow colony outgrowth. Plates were fixed using 99.8% ice-cold methanol (Honeywell) for 10 min at RT. […]

RPE-1 p53-venus cells = assay: Live-cell imaging of cell division after single-cell laser irradiation; assay type: cell-based; conditions: RPE-1 p53-venus cells irradiated with 405 nm laser (0.1 s pulse) after treatment
Method: FIG. 5: Spatiotemporal control of PPG-idasanutlin. a) Schematic representation of microwell set-up for laser irradiation of individual RPE-1 cells to activate PPG-idasanutlin. Laser target area (represented. by red circle) for single pulse (0.1 sec irradiation at 5 um interspaced position) indicated with scale. Individual irradiated cells followed by measuring nuclear p53-venus levels (fluorescence) every 15 min for 3 h after laser irradiation. Approximately 200 cells in each microwell. b) Percentage of cells that divide within 8 h after indicated treatments. Mean±sem of three independent experiments. Error bars indicate 95% confidence intervals. c, d) p53-venus fluorescent signal in individual RPE-1 cells tracked over time after indicated treatments as represented in (a). Line-graphs represent mean of individual cells. n>42 cells per condition pooled from three independent experiments. ***p<0.005, ****p<0.0001 significance in 2-way anova interaction score. […]
(§4) Using RPE-1 cells that stably expressed a venus-tagged version of p53 (p53-venus), p53 protein accumulation could be tracked with high time-resolution in individual cells by live-cell microscopy. […] To determine the functionality of the high spatiotemporal control obtained in this set-up, cell cycle progression was monitored in single cells following laser activation of PPG-idasanutlin (photorelease of idasanutlin).

RPE-1 cells = assay: Clonogenic outgrowth of RPE-1 cells; assay type: cell-based; conditions: 6 days
Method: as §1, §3

[5] = test system: p53 protein level in RPE-1 cells; assay: p53 protein levels (western blot) in RPE-1 cells, dose-response; assay type: cell-based; conditions: increasing duration of 400 nm irradiation and varying doses, 4 h
Method: as §1, with “used. […]” for “used.”
To examine the level of control over the dose-response of idasanutlin (employing PPG-idasanutlin), p53 protein levels in RPE-1 cells were determined by immunostaining after both increasing duration of 400 nm light irradiation and varying doses of PPG-idasanutlin (FIG. 3.c).

[6] = Photochemical behavior (photocleavage) by UV-vis spectroscopy and UPLC-MS in aqueous buffer; assay type: physicochemical; conditions: λ=400 nm light, aqueous buffer pH=7.0
Method: Thin Layer Chromatography (TLC) was performed using commercial Kieselgel 60, F254 silica gel plates with fluorescence-indicator UV254 (Merck, TLC silica gel 60 F254). For detection of components, UV light at λ=254 nm or λ=365 nm was used. Alternatively, oxidative staining using aqueous basic potassium permanganate solution (KMnO4) or aqueous acidic cerium phosphomolybdic acid solution (Seebach's stain) was used. Flash chromatography was performed on silica gel (Silicycle Siliaflash P60, […], 230-400 mesh). Drying of solutions was performed with MgSO4 and volatiles were removed with a rotary evaporator. Nuclear Magnetic Resonance spectra were measured with an Agilent Technologies 400-MR (400/54 Premium Shielded) spectrometer (400 MHz). All spectra were measured at room temperature (22-24° C.). Chemical shifts for ^1H- and ^13C-NMR measurements were determined relative to the residual solvent peaks in ppm (δH 7.26 for CHCl3, 2.50 for DMSO and 2.05 ppm for Acetone, δC 77.16 for CHCl3 and 39.52 for DMSO). The following abbreviations are used to indicate signal multiplicity: s, singlet; d, doublet; t, triplet; q, quartet; m, multiplet; brs, broad signal. All ^13C-NMR spectra are ^1H-broadband decoupled. High-resolution mass spectrometric measurements were performed on a Thermo scientific LTQ Orbitrap XL with ESI ionization. For spectroscopic measurements, solutions in Uvasol® grade solvents were measured in a 10 mm quartz cuvette. UV-Vis absorption spectra were recorded on an Agilent 8453 UV-Visible absorption Spectrophotometer.
as §2

p53-venus in RPE-1 cells = assay: Live-cell imaging of nuclear p53-venus signal after single-cell laser irradiation; assay type: cell-based
Method: FIG. 5: Spatiotemporal control of PPG-idasanutlin. a) Schematic representation of microwell set-up for laser irradiation of individual RPE-1 cells to activate PPG-idasanutlin. Laser target area (represented. by red circle) for single pulse (0.1 sec irradiation at 5 um interspaced position) indicated with scale. Individual irradiated cells followed by measuring nuclear p53-venus levels (fluorescence) every 15 min for 3 h after laser irradiation. Approximately 200 cells in each microwell. b) Percentage of cells that divide within 8 h after indicated treatments. Mean±sem of three independent experiments. Error bars indicate 95% confidence intervals. c, d) p53-venus fluorescent signal in individual RPE-1 cells tracked over time after indicated treatments as represented in (a). Line-graphs represent mean of individual cells. n>42 cells per condition pooled from three independent experiments. ***p<0.005, ****p<0.0001 significance in 2-way anova interaction score.
For live cell imaging, cells were grown in picovitro microwells covered by a silicon membrane^4 in Leibovitz's L-15 (Gibco) CO2-independent medium supplemented with ultraglutamine, penicillin/streptomycin and 10% fetal calf serum. Images for both fixed slides and live cell imaging were obtained using a Delta Vision Elite (applied precision) equipped with a 60× 1.6 NA or 10× 0.75 NA lens (Olympus) and cooled CoolSnap CCD camera. Directed laser irradiation was performed using a brief (0.1 s) pulse of a 405 nm laser on the Delta Vision Elite microscope equipped with a X4 laser module (Applied Precision). Image analysis was done using ImageJ software. […]
as §4, with “idasanutlin). […]” for “idasanutlin).”

cellular outgrowth = assay: Cell outgrowth experiments with PPG photoproduct; assay type: cell-based; conditions: photoproduct formed upon photocleavage of photonutlin
Method: Cells were plated at equal amounts (1000 cells per well) in a 24-wells plate followed by indicated treatments −/+irradiation (400 nm for 5 min) 24 h later. Cells were cultured under normal cell culture conditions for 6 days to allow colony outgrowth. Plates were fixed using 99.8% ice-cold methanol (Honeywell) for 10 min at RT. After a 1 time wash in H2O, cells were incubated in 0.2% crystal violet (Sigma) in H2O for at least 3 h at RT to stain cellular outgrowth.

SMILES: COc1cc(C(=O)O)ccc1NC(=O)[C@@H]1N[C@@H](CC(C)(C)C)[C@](C#N)(c2ccc(Cl)cc2F)[C@H]1c1cccc(Cl)c1F [idasanutlin, 4-((2R,3S,4R,5S)-3-(3-chloro-2-fluorophenyl)-4-(4-chloro-2-fluorophenyl)-4-cyano-5-neopentylpyrrolidine-2-carboxamido)-3-methoxybenzoic acid, reference compound]
- nuclear p53 protein levels ([1]; 10 μM): significant increase

- time without significant spontaneous hydrolysis [3]: > 24 h
- irradiation time for major photorelease of idasanutlin [6]: ≤ 5 min
- quantum yield of photocleavage [6]: 0.1%
SMILES: CCN(CC)c1ccc2c(C(C)OC(=O)c3ccc(NC(=O)[C@@H]4N[C@@H](CC(C)(C)C)[C@](C#N)(c5ccc(Cl)cc5F)[C@H]4c4cccc(Cl)c4F)c(OC)c3)cc(=O)oc2c1 (stereo partly drawn) [PPG-idasanutlin, 1-(7-(diethylamino)-2-oxo-2H-chromen-4-yl)ethyl 4-((2R,3S,4R,5S)-3-(3-chloro-2-fluorophenyl)-4-(4-chloro-2-fluorophenyl)-4-cyano-5-neopentylpyrrolidine-2-carboxamido)-3-methoxybenzoate]
- stabilization of p53 [2]: Selective stabilization
- cellular outgrowth [4]: dramatic reduction
- percentage of cells that divide within 8 h (RPE-1 p53-venus cells): strongly drops
- colony outgrowth (RPE-1 cells; after irradiation with 400 nm for 5 min): selectively blocked
- colony outgrowth (growth inhibition) (RPE-1 cells; without 400 nm irradiation): did not show any growth inhibition
- p53 protein level ([1]; 10 μM, irradiated with 400 nm light (5 min), fixed 4 h after): significant increase
- p53 stabilization ([1]; without 400 nm irradiation): no functional effect
- accumulation of p53 protein [5]: clear dose-response dependent accumulation
- products observed upon photodeprotection [6]: solely the formation of idasanutlin and hydroxycoumarin
- nuclear p53-venus signal (p53-venus in RPE-1 cells; neighbouring cells not irradiated by the 405 nm laser): significantly lesser extent
- nuclear p53-venus signal (p53-venus in RPE-1 cells; non-irradiated cells from adjacent wells at micrometer distance): completely absent
- nuclear p53-venus signal (p53-venus in RPE-1 cells; single cells irradiated with 405 nm laser, 15 min intervals): selective stabilization

SMILES: COc1ccc(C2=N[C@@H](c3ccc(Cl)cc3)[C@@H](c3ccc(Cl)cc3)N2C(=O)N2CCNC(=O)C2)c(OC(C)C)c1 [nutlin-3, reference compound]
- nuclear p53 protein levels ([1]; 10 μM): significant increase

SMILES: CCN(CC)c1ccc2c(C(C)O)cc(=O)oc2c1 (stereo not drawn) [PPG 6, 7-(diethylamino)-4-(1-hydroxyethyl)-2H-chromen-2-one]
- cellular outgrowth (cellular outgrowth): does not perturb
